Assay results: patent US20080221104A1, “SOLUBLE EPOXIDE HYDROLASE INHIBITORS FOR THE TREATMENT OF RHEUMATOID ARTHRITIS” (Arete Therapeutics, Inc., priority 2006, published 2008)

Key:
sEH = target: T1, sEH (Homo sapiens, UniProt P34913); experiment: sEH inhibition, fluorescent CMNPC substrate assay (IC50 determination); type: biochemical; settings: for inhibition at 0.05 µM: tested at 50 nM
T1 sequence (P34913 1-555): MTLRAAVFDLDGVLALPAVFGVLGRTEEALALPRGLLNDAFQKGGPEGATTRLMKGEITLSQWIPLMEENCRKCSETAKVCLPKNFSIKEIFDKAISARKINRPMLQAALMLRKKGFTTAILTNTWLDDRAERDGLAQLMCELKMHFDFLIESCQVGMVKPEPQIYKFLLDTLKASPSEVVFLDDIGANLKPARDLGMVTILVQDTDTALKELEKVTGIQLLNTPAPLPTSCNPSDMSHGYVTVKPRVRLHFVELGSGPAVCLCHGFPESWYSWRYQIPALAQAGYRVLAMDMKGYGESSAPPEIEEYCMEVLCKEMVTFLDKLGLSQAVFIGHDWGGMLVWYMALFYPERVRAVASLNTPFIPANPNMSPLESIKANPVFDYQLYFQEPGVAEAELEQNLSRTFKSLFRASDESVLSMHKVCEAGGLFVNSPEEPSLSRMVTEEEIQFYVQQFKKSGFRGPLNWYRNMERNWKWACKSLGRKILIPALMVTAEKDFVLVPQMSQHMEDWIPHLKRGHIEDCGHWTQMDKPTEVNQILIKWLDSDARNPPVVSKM
Procedure: The IC50s for each inhibitor were determined according to the following procedure:
The substrate for the reaction was:
Therefore, well A2 would refer to a well in the first row and second column of the plate.
In a black 96 well plate, all the wells are filled with 150 μL of buffer A (Buffer A: Bis/Tris HCl, 25 mM, pH 7.0 plus 0.1 mg/mL BSA). DMSO (2 microliters) was added in well A2 and A3, and then was added 2 μL of inhibitor solution in A1 and A4 through A12. […] The plate was incubated for 5 minutes in the plate reader at 30° C. During incubation, the working solution of substrate was prepared by mixing 3.68 mL of buffer A with 266 μL of 0.5 mM substrate solution. At t=0, 30 μL of working substrate solution was added and readings were started ([S]final: 5 μM). […] The velocities were used to analyze and calculate the IC50s.

DBA/1 mice = experiment: Collagen induced rheumatoid arthritis (RA) mouse model; type: in vivo, mice (DBA/1)
Procedure: Mice were immunized with collagen as follows. Collagen (Bovine Type II, 0.05M in acetic acid) was emulsified with CFA (Complete Freund's Adjuvant) by mixing one volume of CFA with an equal amount of the collagen solution. Mixing was continued until a stable, stiff emulsion resulted. To ascertain the desired stability of the emulsion, 1 drop of emulsion was added into a water-filled beaker. The emulsion was considered stable if it remained in the water as a solid. For the collagen IP boost on day 21, the Bovine Type II collagen (Condrex, Seattle, Wash.) was thawed at 4° C. overnight and then mixed 1:1 with the PBS supplied. 200 μL was injected IP into each mouse. Four groups of 10 mice (40 total), aged 7-8 weeks were acclimated a minimum of 5 days prior to start of the study. Animals were housed 5 per cage in microisolators in a 12:12 light dark cycle (all work was done in a BioBubble Hood™). Standard maintenance mouse chow diet (Harlan Teklad 8640) was supplied. Water and food were given ad libitum. High CIA-susceptible DBA/1 mice were utilized which generally develop arthritis 3-5 weeks after immunization with Bovine type TI collagen. Fully developed arthritis, including red and swollen paws, was to be observed 3-5 days after the onset. […] Time of dosing was approximately the same each day following through the end of the study. The mice groups were fed as follows through the duration of the experiment: Group 1) Chow (Referred to as “Vehicle” in FIG. 1). Group 2) Chow (Positive Control-Dexamethasone (DEXA))-Dosed as appropriate. […] The dosing solutions were made on a twice weekly basis and stored at 4° C. between dosing. Measurements were taken twice weekly from boost and included: body weight measurement and Arthritic Score on a scale of 0 to 4. Arthritic score 0-4 (0=normal; 1=1-2 digit swollen and mildly red; 2=redness and swelling in mid-foot or ankle; 3=>3 paws and ankle joints swollen and very red); 4=all joints swollen and animal is not using the paw. At onset of arthritis paw measurements were taken with calipers. A baseline of caliper measurements was taken when all visual assessments were zero. Measurements were taken with an electronic caliper that entered measurements directly to an excel spreadsheet. The study was terminated on Day 42 from initial collagen injection. Cardiac blood was taken from each mouse and plasma prepared in EDTA within 15 min of collection. Plasma was frozen at −20° C. for future analysis of cytokines and eicosatrienoic acids. All left hind paws were removed and stored in formalin for future histology.

[1] = Pharmacokinetic study in mice; type: in vivo; settings: mouse plasma; for MRT: read-out: mean resident time (MRT)
Procedure: All animals were weighed prior to dose administration. […].
Blood (˜0.5 mL) was collected by cardiac puncture at sacrifice and transferred into vacutainer tubes containing sodium heparin at the time points outlined (See FIG. 3). After collection, the blood samples were centrifuged at approximately 1000×g at 2-8° C. for approximately 15 minutes. Each plasma specimen was collected, aliquoted into 2 microcentrifuge tubes, and stored at about −20° C. until analysis by LC/MS (liquid chromatography/mass spectrometry).
The quantitation method for pharmacokinetics is summarized as follows:
To prepare calibration standards for quantitation, the working standard was diluted 1 in 100 into rat plasma to 5 μg/mL (5 μL+495 μL), then diluted further with the same medium by 3-fold serial dilution. A total of seven dilutions were performed yielding eight calibration standards ranging from 2.29 to 5000 ng/mL. Calibration standards 3, 5 and 7 were used as the low, mid and high QC samples, respectively.
Calibration standards, QC samples and study samples were prepared for HPLC injection by precipitating plasma (25 μL) with 3× volumes (75 μL) of ice cold Internal Standard Solution. Following centrifugation at 6100 g for 30 minutes, 40 μL of each supernatant was transferred to a deep-well microplate and diluted with 200 μL of 0.2% formic acid in water.

IL-6 = experiment: LPS-induced cytokine production in mice (plasma IL-6); type: in vivo, mice (C57-B6)
Text: Mouse Model of Inflammation Supporting Arthritis Model: Study of effect of Treatments on LPS-Induced Cytokine Production Mice (C57-B6 mice, ˜7-8 wks, male, Charles River Labs, 22-28 g) were quarantined and examined daily during 72 hr quarantine period. Any sign of clinical distress, disease, or injury were noted on a daily basis. […] Accepted mice were transferred to routine maintenance and housed at 5 per cage. Each mouse was identified by an ear tag. The vehicle or pharmaceutically acceptable carrier for test compounds was 20% hydroxypropyl-beta-cyclodextrin for subcutaneous and interperoneal routes (Groups 6-9). For Groups 1-5, the “Vehicle” as used in this study is 0.1% Tween 80 and 1% carboxymethylcellulose (CMC). The 0.1% Tween 80 and 1% carboxymethylcellulose (CMC) was the Vehicle used in the mice in Groups 1 and 2. The compounds were administered with pre-formulated material at a dose of 0.2 mL for 25 g mouse (8.0 mL per kg body weight). […] At the initiation of the study (T=0) animals were weighed and administered with test material or Vehicle. Five 5 mice per treatment per time point group were completed. At the first time point (T=24 hours) the animals were administered with test material or Vehicle again as above. [0.2 mL for 25 g mouse (8.0 mL per kg body weight)] [table] At the time point T=25 hour, animals were administered 2 mL/kg of an LPS solution (5 mg/mL, lipopolysaccharide from Escherichia coli 0111:B4; dissolved in sterile PBS) or vehicle by intraperitoneal route. At this time point, Group 1 mice received Vehicle only as the non-LPS control and Groups 2 through 9 mice received LPS and Vehicle (Group 2) or Test Materials. At the time point T=30 hour, mice in Groups 1 through 9 were anesthetized and exsanguinated into EDTA-treated microtainer tubes. […] The plasma samples was stored at −20° C. until testing. Plasma IL-6 was measured by Luminex cytokine multiplex measurements using beads supplied by Linco.

[2] = 50 mg/kg PO once a day (QD), Day 20 to Day 27
[3] = 50 mg/kg PO twice a day (BID), Day 28 to Day 42

inhibition at 0.05 µM (sEH) [%] | Cmax [1] [µg/mL] | MRT [1] [h] | area under the curve (AUC), fold higher than COMPOUND #2 [1] | IC50 (sEH; read-out: IC50 against sEH) [nM] | SMILES | arthritis score vs Vehicle (DBA/1 mice; [2]) | arthritis score vs Vehicle (DBA/1 mice; [3]) | inhibition of IL-6 release in response to LPS (IL-6; administered SC, 50 mg/kg) [%] | inhibition of IL-6 release in response to LPS (IL-6; given orally, 50 mg/kg) [%] | inhibition of IL-6 release in response to LPS (IL-6; PO, 100 mg/kg, relative to the vehicle control) [%]
94 |  |  |  |  | CS(=O)(=O)N1CCC(NC(=O)NC23CC4CC(CC(C4)C2)C3)CC1 [Compound 5, 1-[1-(methylsulfonyl)piperidin-4-yl]-3-(adamant-1-yl) urea] |  |  |  |  | 
 | 6.49 | 1.3 |  |  | CC(=O)N1CCC(NC(=O)NC23CC4CC(CC(C4)C2)C3)CC1 [Compound 2, 1-(1-acetylpiperidn-4-yl)-3-(adamant-1-yl) urea] | not significantly different from Vehicle treated animals | not significantly different from Vehicle treated animals | 51 | 51 | 
82 | 9.92 | 5.6 | over 20 fold | 9 | O=C(Nc1ccc(C(F)(F)F)cc1)Nc1cccc(C(=O)N2CCOCC2)c1 [Compound 1, 1-[3-(morpholine-4-carbonyl)-phenyl]-3-(4-trifluoromethyl-phenyl)-urea] | no significant difference from Vehicle | significantly decreased the arthritic score | 94 | 55 | 
 |  |  |  |  | Fc1ccc(-c2nc3n(c2-c2ccncc2)CCS3)cc1 [SKF86002, reference compound] |  |  |  |  | 66
